This assay can be described thus: Antagonist activity at PAR4 in human platelet-rich plasma assessed as inhibition of gamma-thrombin-induced platelet aggregation preincubated for 5 mins followed by gamma-thrombin stimulation.

Take `COc1cc(OCc2nc(-c3ccc(C(=O)N(C)C)cc3)sc2C)c2cc(-c3cn4nc(OC)sc4n3)oc2c1` [US9688695, 66]: the 50% inhibitory concentration (IC50) came to 0.0021 µM. Turning to `CSc1nn2cc(-c3cc4ccccc4o3)nc2s1` [US9862730, Example 1], the IC50 was 2.6 µM.

For orientation: IC50 means the concentration that gives 50% inhibition.

For the origin of these results see BindingDB's records for doi:10.1016/j.ejmech.2020.112893 (China Pharmaceutical University, 2021).
